US20210395652A1, “TEXTILE TREATMENT COMPOSITIONS” (priority 2020, published 2021)
Read-outs that look alike come from different tables or passages of the source.

How the values were obtained:
[1] = system: NCTC clone 1469 cells; test: Cytotoxicity control of the treated fabric test; assay type: cell-based, mouse; conditions: Formaldehyde control
Method: Controls were untreated fabric pieces of the same size. After incubation with the virus for 15, 30 or 60 minutes the samples were neutralized with D/E broth, vortexed to remove the virus from the fabric and passed over a Sephadex LH-20 column to remove potential cytotoxic substances. Serial dilutions of the column eluates were used to inoculate NCTC clone 1469 cells in a 96 well plate to determine the TCID50 for the virus at each time. After 14 days the wells were examined for cytopathological effects (CPE) in the cells and scored accordingly.

[2] = system: NCTC clone 1469 cells; conditions: mouse, pH 7.3

`C=O` [Formaldehyde] was tested, and the “dilution to which all cells were killed” value [1] was “killed all cells to the 10^−2 dilution” and the “dilution to which all cells were killed” value [2] was “killed all cells to the 10^4 dilution”.
